From ChEMBL document CHEMBL4052801, “Design, synthesis and anticancer activity of N-(1-(4-(dibenzo[b,f][1,4]thiazepin-11-yl)piperazin-1-yl)-1-oxo-3-phenylpropan-2-yl derivatives” (Bioorg Med Chem Lett, 2017)
pIC50: −log10 of the molar value.

What was measured:
MDA-MB-231 = assay: Cytotoxicity against human MDA-MB-231 cells after 24 hrs by MTT assay; format: functional, cell-based; settings: MDA-MB-231, 24 h
K562 = assay: Cytotoxicity against human K562 cells after 24 hrs by MTT assay; format: functional, cell-based; settings: K562, 24 h
COLO 205 = assay: Cytotoxicity against human COLO205 cells after 24 hrs by MTT assay; format: functional, cell-based; settings: COLO 205, 24 h
[1] = target: T1, NAD-dependent protein deacetylase sirtuin-1 (Homo sapiens) (UniProt Q96EB6); assay: Inhibition of human Sirt1 at 10 uM using fluorophore-labelled peptide as substrate measured after 15 mins by fluorescence assay relative to control
T1 sequence (whole entry): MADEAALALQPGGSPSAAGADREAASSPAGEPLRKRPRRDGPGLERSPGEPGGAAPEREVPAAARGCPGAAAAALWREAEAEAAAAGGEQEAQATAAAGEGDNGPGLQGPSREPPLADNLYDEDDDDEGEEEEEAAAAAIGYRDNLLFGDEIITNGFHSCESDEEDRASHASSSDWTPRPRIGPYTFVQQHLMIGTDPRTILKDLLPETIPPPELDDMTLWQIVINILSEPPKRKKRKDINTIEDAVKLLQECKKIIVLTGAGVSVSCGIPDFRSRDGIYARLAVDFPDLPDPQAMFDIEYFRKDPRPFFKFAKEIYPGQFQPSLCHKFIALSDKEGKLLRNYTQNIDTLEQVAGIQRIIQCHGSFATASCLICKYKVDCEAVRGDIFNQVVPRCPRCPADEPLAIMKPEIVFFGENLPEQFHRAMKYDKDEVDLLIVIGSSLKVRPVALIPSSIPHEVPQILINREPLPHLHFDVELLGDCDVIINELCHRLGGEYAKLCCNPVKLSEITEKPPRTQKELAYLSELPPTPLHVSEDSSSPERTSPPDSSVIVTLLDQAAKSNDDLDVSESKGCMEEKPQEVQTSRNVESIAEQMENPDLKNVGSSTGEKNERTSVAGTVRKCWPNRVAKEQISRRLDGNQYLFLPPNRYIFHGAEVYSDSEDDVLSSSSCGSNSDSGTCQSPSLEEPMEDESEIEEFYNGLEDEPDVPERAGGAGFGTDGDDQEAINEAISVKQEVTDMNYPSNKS

| inhibition [1] [%] | SMILES | pIC50 (MDA-MB-231) | pIC50 (K562) | pIC50 (COLO 205) |
| --- | --- | --- | --- | --- |
|  | Cc1ccc(C(=O)NC(Cc2ccccc2)C(=O)N2CCN(C3=Nc4ccccc4Sc4ccccc43)CC2)cn1 (configuration not stated) | 4.27 | 4.41 | 4.47 |
|  | CS(=O)(=O)c1ccc(CC(=O)NC(Cc2ccccc2)C(=O)N2CCN(C3=Nc4ccccc4Sc4ccccc43)CC2)cc1 (configuration not stated) | 4.25 | 4.55 | 4.49 |
|  | O=C(CCc1cccc(Cl)c1)NC(Cc1ccccc1)C(=O)N1CCN(C2=Nc3ccccc3Sc3ccccc32)CC1 (configuration not stated) | 4.23 | 4.57 | 4.80 |
| 62 | O=C(NC(Cc1ccccc1)C(=O)N1CCN(C2=Nc3ccccc3Sc3ccccc32)CC1)c1cnccn1 (configuration not stated) | 4.42 | 4.80 | 4.82 |
|  | Cc1ccc(Br)cc1C(=O)NC(Cc1ccccc1)C(=O)N1CCN(C2=Nc3ccccc3Sc3ccccc32)CC1 (configuration not stated) | 4.31 | 4.57 | 4.80 |
|  | CCc1ccc(C(=O)NC(Cc2ccccc2)C(=O)N2CCN(C3=Nc4ccccc4Sc4ccccc43)CC2)cc1 (configuration not stated) | 4.36 | 4.68 | 4.60 |
|  | O=C(NC(Cc1ccccc1)C(=O)N1CCN(C2=Nc3ccccc3Sc3ccccc32)CC1)c1ccc(I)cc1 (configuration not stated) | 4.26 | 4.59 | 4.55 |
|  | O=C(Cc1ccc2c(c1)OCO2)NC(Cc1ccccc1)C(=O)N1CCN(C2=Nc3ccccc3Sc3ccccc32)CC1 (configuration not stated) | 4.28 | 4.46 | 4.62 |
| 54 | Cc1ccc(C)c(C(=O)NC(Cc2ccccc2)C(=O)N2CCN(C3=Nc4ccccc4Sc4ccccc43)CC2)c1 (configuration not stated) | 4.47 | 4.80 | 4.92 |
| 44 | CC(C)(C(=O)NC(Cc1ccccc1)C(=O)N1CCN(C2=Nc3ccccc3Sc3ccccc32)CC1)c1ccc(C(=O)C2CC2)cc1 (configuration not stated) | 4.47 | 4.85 | 4.77 |
| 71 | O=C(NC(Cc1ccccc1)C(=O)N1CCN(C2=Nc3ccccc3Sc3ccccc32)CC1)c1ccc(OC(F)F)cc1 (configuration not stated) | 4.41 | 4.92 | 5.00 |
|  | N#Cc1ccc(C(=O)NC(Cc2ccccc2)C(=O)N2CCN(C3=Nc4ccccc4Sc4ccccc43)CC2)cc1 (configuration not stated) | 4.21 | 4.62 | 4.54 |
|  | Cc1ccc(C(=O)NC(Cc2ccccc2)C(=O)N2CCN(C3=Nc4ccccc4Sc4ccccc43)CC2)c(C)c1 (configuration not stated) | 4.43 | 4.46 | 4.40 |
| 51 | O=C(NC(Cc1ccccc1)C(=O)N1CCN(C2=Nc3ccccc3Sc3ccccc32)CC1)c1ccoc1 (configuration not stated) | 4.43 | 4.77 | 4.85 |
|  | COC(=O)CCCC(=O)NC(Cc1ccccc1)C(=O)N1CCN(C2=Nc3ccccc3Sc3ccccc32)CC1 (configuration not stated) | 4.19 | 4.72 | 4.55 |
|  | Cc1ccc(C(=O)NC(Cc2ccccc2)C(=O)N2CCN(C3=Nc4ccccc4Sc4ccccc43)CC2)cc1I (configuration not stated) | 4.23 | 4.44 | 4.35 |
|  | CC(=O)CCCC(=O)NC(Cc1ccccc1)C(=O)N1CCN(C2=Nc3ccccc3Sc3ccccc32)CC1 (configuration not stated) | 4.28 | 4.49 | 4.48 |
|  | CCN(CC)CCNC(=O)c1c(C)[nH]c(/C=C2\C(=O)Nc3ccc(F)cc32)c1C [SUNITINIB] | 4.49 | 4.85 | 5.10 |
|  | CCOC(=O)CCCC(=O)NC(Cc1ccccc1)C(=O)N1CCN(C2=Nc3ccccc3Sc3ccccc32)CC1 (configuration not stated) | 4.32 | 4.70 | 4.44 |
